For assay [1], the target named is Replicase polyprotein 1ab (Severe acute respiratory syndrome coronavirus 2) (UniProt P0DTD1). In words: Binding affinity to SARS-CoV-2 main protease assessed as change in melting temperature by DSF assay.
Assay [2] deals with Replicase polyprotein 1ab (Severe acute respiratory syndrome coronavirus 2, UniProt P0DTD1). In words: Inhibition of SARS-CoV-2 main protease by FRET assay.

pIC50: −log10 of the molar value.

Experimental findings from ChEMBL document CHEMBL5365412, “Discovery of benzodiazepine derivatives as a new class of covalent inhibitors of SARS-CoV-2 main protease” (Bioorg Med Chem Lett, 2023) are described below.

As a reminder, the ΔTm is the change in melting temperature against a reference sample. In general, pIC50 refers to −log10 of the IC50, conventionally taken in molar units. Low readings indicate a high IC50, high ones a low IC50. `COc1ccc(C2C3=C(CC(C)(C)CC3=O)Nc3cc([N+](=O)[O-])ccc3N2C(=O)CCl)cc1` (stereo unspecified): the ΔTm in assay [1] was -2.76 °C. In addition, the pIC50 in assay [2] is 5.34.
Regarding `O=C1CCCC2=C1C(c1ccc(F)cc1F)N(C(=O)CCl)c1ccc([N+](=O)[O-])cc1N2` (stereo unspecified), the ΔTm in assay [1] was determined as 2.95 °C. This compound gave a pIC50 in assay [2] of 5.39.
In the same order, the values of `CC1CC(=O)C2=C(C1)Nc1cc([N+](=O)[O-])ccc1N(C(=O)CCl)C2C1CC1` (stereo unspecified) are 4.66 °C and 5.04.
In the same order, the values of `CC1CC(=O)C2=C(C1)Nc1cc([N+](=O)[O-])ccc1N(C(=O)CCl)C2c1ccc(OC(F)(F)F)cc1` (stereo unspecified) are 0.13 °C and 5.38.
`O=C1CCCC2=C1C(C1CCCCC1)N(C(=O)CCl)c1ccc([N+](=O)[O-])cc1N2` (stereo unspecified): in assay [1], the ΔTm came to 7.14 °C. The same compound had a pIC50 in assay [2] of 5.80.
Take `O=C1CCCC2=C1C(c1ccc(C(F)(F)F)cc1)N(C(=O)CCl)c1ccc([N+](=O)[O-])cc1N2` (stereo unspecified): the ΔTm in assay [1] was found to be 6.6 °C. The compound also gave a pIC50 in assay [2] of 5.99.
In the same order, the values of `CC1C2=C(CC(C)(C)CC2=O)Nc2cc([N+](=O)[O-])ccc2N1C(=O)CCl` (stereo unspecified) are 1.32 °C and 4.63.
Turning to `Cc1ccc(C2C3=C(CC(C)(C)CC3=O)Nc3cc([N+](=O)[O-])ccc3N2C(=O)CCl)cc1` (stereo unspecified), the ΔTm in assay [1] is 3.27 °C. Also, the pIC50 in assay [2] was 5.40.
In the same order, the values of `CC1CC(=O)C2=C(C1)Nc1cc([N+](=O)[O-])ccc1N(C(=O)CCl)C2C1CCCCC1` (stereo unspecified) are 2.57 °C and 5.44.
Consider `O=C1CCCC2=C1C(C1CC1)N(C(=O)CCl)c1ccc([N+](=O)[O-])cc1N2` (stereo unspecified), for which the ΔTm in assay [1] turned out to be 4.77 °C. The compound further showed a pIC50 in assay [2] of 5.59.
`CC1CC(=O)C2=C(C1)Nc1cc([N+](=O)[O-])ccc1N(C(=O)CCl)C2C` (stereo unspecified): in assay [1], the ΔTm stood at 3.21 °C. The compound further had a pIC50 in assay [2] of 4.96.
On to `Cc1ccc(C2C3=C(CCCC3=O)Nc3cc([N+](=O)[O-])ccc3N2C(=O)CCl)cc1` (stereo unspecified), for which the ΔTm in assay [1] came out at 4.44 °C. Besides, in assay [2], the pIC50 was 5.63.
Turning to `CC1CC(=O)C2=C(C1)Nc1cc([N+](=O)[O-])ccc1N(C(=O)CCl)C2c1ccc(F)cc1F` (stereo unspecified), the ΔTm in assay [1] was determined as 3.25 °C. The compound further had a pIC50 in assay [2] of 5.21.
`N#Cc1ccc2c(c1)NC1=C(C(=O)CCC1)C(c1ccc(C(F)(F)F)cc1)N2C(=O)CCl` (stereo unspecified): the ΔTm in assay [1] was found to be 6.02 °C. Also, the pIC50 in assay [2] was 5.74.
In the case of `COC(=O)c1ccc2c(c1)NC1=C(C(=O)CCC1)C(c1ccc(C(F)(F)F)cc1)N2C(=O)CCl` (stereo unspecified), in assay [1], the ΔTm was 8.45 °C. Moreover, the pIC50 in assay [2] was 6.74.
The like results for `O=C1CCCC2=C1C(c1ccccc1)N(C(=O)CCl)c1ccc([N+](=O)[O-])cc1N2` (stereo unspecified) were, in that order, 5.71 °C and 5.78.
As for `CC1(C)CC(=O)C2=C(C1)Nc1cc([N+](=O)[O-])ccc1N(C(=O)CCl)C2c1ccc(F)cc1F` (stereo unspecified), the ΔTm in assay [1] was determined as 2.94 °C. This compound had a pIC50 in assay [2] of 5.02.
In the same order, the values of `Cc1ccc(C2C3=C(CC(C)CC3=O)Nc3cc([N+](=O)[O-])ccc3N2C(=O)CCl)cc1` (stereo unspecified) are 1.62 °C and 5.47.
Consider `COc1ccc(C2C3=C(CC(C)CC3=O)Nc3cc([N+](=O)[O-])ccc3N2C(=O)CCl)cc1` (stereo unspecified), for which the ΔTm in assay [1] was found to be 3.13 °C. The pIC50 in assay [2] is 5.35.
Regarding `COc1ccc(C2C3=C(CCCC3=O)Nc3cc([N+](=O)[O-])ccc3N2C(=O)CCl)cc1` (stereo unspecified), the ΔTm in assay [1] was determined as 4.55 °C. Moreover, in assay [2], the pIC50 is 5.69.
For `CC1CC(=O)C2=C(C1)Nc1cc([N+](=O)[O-])ccc1N(C(=O)CCl)C2C1CCC1` (stereo unspecified), the ΔTm in assay [1] was 2.74 °C. This compound had a pIC50 in assay [2] of 5.14.
In the same order, the values of `CC1CC(=O)C2=C(C1)Nc1cc([N+](=O)[O-])ccc1N(C(=O)CCl)C2C1CCCC1` (stereo unspecified) are 3.01 °C and 5.29.
On to `CC1C2=C(CCCC2=O)Nc2cc([N+](=O)[O-])ccc2N1C(=O)CCl` (stereo unspecified), for which the ΔTm in assay [1] is 4.5 °C. Further, the negative-log IC50 (pIC50) in assay [2] is 5.43.
`O=C1CCCC2=C1C(c1ccc(OC(F)(F)F)cc1)N(C(=O)CCl)c1ccc([N+](=O)[O-])cc1N2` (stereo unspecified): the ΔTm in assay [1] was 3.65 °C. This compound had a pIC50 in assay [2] of 5.69.
Consider `CC1CC(=O)C2=C(C1)Nc1cc([N+](=O)[O-])ccc1N(C(=O)CCl)C2` (stereo unspecified), for which, in assay [1], the ΔTm is 2.79 °C. The compound also showed a pIC50 in assay [2] of 4.94.
For the compound `O=C1CCCC2=C1CN(C(=O)CCl)c1ccc([N+](=O)[O-])cc1N2`, in assay [1], the ΔTm stood at 4.1 °C. The compound also showed a pIC50 in assay [2] of 5.29.
In the case of `CC1(C)CC(=O)C2=C(C1)Nc1cc([N+](=O)[O-])ccc1N(C(=O)CCl)C2C1CCCC1` (stereo unspecified), the ΔTm in assay [1] is 3.53 °C. The pIC50 in assay [2] was 5.04.
Consider `CC1(C)CC(=O)C2=C(C1)Nc1cc([N+](=O)[O-])ccc1N(C(=O)CCl)C2c1ccc(OC(F)(F)F)cc1` (stereo unspecified), for which, in assay [1], the ΔTm is -1.64 °C. The compound also had a pIC50 in assay [2] of 5.25.
Regarding `CC1(C)CC(=O)C2=C(C1)Nc1cc([N+](=O)[O-])ccc1N(C(=O)CCl)C2`, the ΔTm in assay [1] came to 1.85 °C. The compound also had a pIC50 in assay [2] of 4.61.
In the case of `CC1(C)CC(=O)C2=C(C1)Nc1cc([N+](=O)[O-])ccc1N(C(=O)CCl)C2C1CCCCC1` (stereo unspecified), the ΔTm in assay [1] was found to be 4.64 °C. In assay [2], this compound showed a pIC50 of 5.28.
Consider `CC1CC(=O)C2=C(C1)Nc1cc([N+](=O)[O-])ccc1N(C(=O)CCl)C2c1ccc(C(F)(F)F)cc1` (stereo unspecified), for which, in assay [1], the ΔTm came out at 4.02 °C. The pIC50 in assay [2] is 5.48.
Regarding `O=C1CCCC2=C1C(C1CCCC1)N(C(=O)CCl)c1ccc([N+](=O)[O-])cc1N2` (stereo unspecified), the ΔTm in assay [1] is 6.27 °C. Further, the pIC50 in assay [2] was 5.72.
In the case of `CC1(C)CC(=O)C2=C(C1)Nc1cc([N+](=O)[O-])ccc1N(C(=O)CCl)C2C1CCC1` (stereo unspecified), the shift in melting temperature (ΔTm) in assay [1] came out at 2.72 °C. Also, the pIC50 in assay [2] is 5.02.
The like results for `CC1(C)CC(=O)C2=C(C1)Nc1cc([N+](=O)[O-])ccc1N(C(=O)CCl)C2c1ccc(C(F)(F)F)cc1` (stereo unspecified) were, in that order, -0.54 °C and 5.43.
In the same order, the values of `O=C1CCCC2=C1C(C1CCC1)N(C(=O)CCl)c1ccc([N+](=O)[O-])cc1N2` (stereo unspecified) are 5.83 °C and 5.61.
Turning to `CC1(C)CC(=O)C2=C(C1)Nc1cc([N+](=O)[O-])ccc1N(C(=O)CCl)C2C1CC1` (stereo unspecified), the ΔTm in assay [1] was 2.01 °C. For the same compound, the pIC50 in assay [2] is 4.87.
Take `CC1CC(=O)C2=C(C1)Nc1cc([N+](=O)[O-])ccc1N(C(=O)CCl)C2c1ccccc1` (stereo unspecified): the ΔTm in assay [1] was 3.16 °C. In assay [2], this compound showed a pIC50 of 5.47.
With `CC1(C)CC(=O)C2=C(C1)Nc1cc([N+](=O)[O-])ccc1N(C(=O)CCl)C2c1ccccc1` (stereo unspecified), the ΔTm in assay [1] is 4.74 °C. Moreover, the pIC50 in assay [2] is 5.34.
